Data published in patent US20190083638A1, “NICLOSAMIDE-CONJUGATED POLYPEPTIDE NANOPARTICLES” (priority 2017, published 2019).

Assays:
[1] = test system: HCT116 human colon carcinoma cells; assay: In vitro cell proliferation (MTS assay); format: cell-based; details: HCT-116, read-out: IC50, concentration of NIC (or NIC equivalent) to inhibit proliferation of cells by 50%, HCT116, 72 hours of exposure
Description: HCT116 human colon carcinoma cells were purchased from American Type Culture Collection (Manassas, Va., USA) and maintained in McCoy's 5A medium supplemented with 10% fetal bovine serum (FBS, Atlanta Biologicals, Lawrenceville, Ga., USA), 200 U/ml penicillin, and 50 ng/ml streptomycin (Invitrogen, Grand island, NY, USA). Cells were grown at 37° C. in 5% CO2. The cells were plated at 5,000 cells per well into 96 well plates and treated with compounds (n=3) for 48 hours, at which point the cell proliferation was measured using the colorimetric MTS assay (Promega, Madison, Wis., USA). Values were normalized as a percentage of DMSO treated cells. The dose response data were fit with sigmoidal dose-response using Graphpad Prism.

[2] = test system: Wnt/β-catenin signaling in HCT-116 cells; assay: Western blot of Wnt signaling (cytosolic β-catenin, c-myc, cyclin D1); format: cell-based, human; details: HCT116, western blotting
Description: Western blots were performed following a procedure similar to that reported previously (Osada et al., Cancer Res., 2011, 71, 4172-4182). […] After treatment, the cytosolic fraction was isolated as previously described (Chen et al., Biochemistry, 2009, 48, 10267-10274). Immunoblot was used to detect the 3-catenin, c-myc and cyclin D1 protein levels in cytosol, with β-actin immunoblots used for loading control.
Wnt signaling activity was quantified as cytosolic β-catenin level by Western blot.

[3] = in vivo; details: iv
Description: Blood samples were obtained 0.5 h prior to dosing and at 0.08, 0.17, 0.33, 0.67, 1.5, 4, 8, 12, 24 hours after drug administration (n=4 per time point).
Blood samples were obtained at 0.5 h prior to the dosing and at 0.08, 0.17, 0.33, 0.67, 1.5, 4, 8, 12, and 24 h after drug administration.

[4] = Dose escalation / tolerability in mice bearing subcutaneous HCT116 tumors; details: male, nude, mouse, in vivo, intravenous, 5 mg/kg BW; mice with tumors, 3 days/week for 2 weeks, tail vein infusion; read-out: maximum tolerated dose
Description: (§1) Controls or drugs were administered by tail vein infusion (50 μL/min) of 500 μL. […] Tumor dimensions and BW were measured 3-4 times a week, and the tumor volume was calculated according to Volume [mm^3]=length×width×depth×½.
(§2) Mice were monitored for BW loss, and euthanized upon exceeding 15% loss in BW or if their tumors grew to a volume greater than 1000 mm3. The maximum tolerated dose (MTD) was determined in mice with tumors. Cumulative survival curves were compared using Kaplan-Meier analysis, and the Sidak test, Tukey Test and Wilcoxon test were calculated using GraphPad Prism 6 software.

[5] = test system: HCT-116 tumors; assay: Tumor inhibition in HCT-116 cell xenograft model; format: in vivo, male nude mice; details: i.v. every third day for two weeks, NIC 5 mg/kg, CP—NIC 20 mg/kg NIC-equivalent, n=8
Description: Prior to in vivo implantation, HCT116 cells were washed twice in Minimum Essential Media (MEM) (51200-038; Invitrogen; Carlsbad, Calif.). HCT116 cells were implanted in the right flank of male nude mice by subcutaneous injection of 1-2×10^6 cells in 50 μL. All animals were treated in accordance with National Institute of Health Guide for the Care and Use of Laboratory Animals under protocols approved by the Duke University Institutional Animal Care and Use Committee.
as §1, §2
Body-weight loss was also measured throughout the treatment of free NIC and CP—NIC conjugate. All treatments were tolerated for the period of the study (FIG. 11). […] It was hypothesized that the mechanism of action of NIC released from nanoparticles in this study is the same as free NIC as previously characterized.

[6] = Pilot study, LD50 of NIC formulated in DMA/PEG 400; design: species or system nude mice; details: nude, mouse, in vivo
[7] = test system: tumor cell lines from multiple tumor types; details: breast, lung, prostate, ovary, blood, pancreas, colon tumor cell lines; read-out: IC50 range, inhibition of proliferation of tumor cell lines; cited from earlier work
[8] = free drug solution at 200 mg/kg BW; cited from earlier work

## O=C(Nc1ccc([N+](=O)[O-])cc1Cl)c1cc(Cl)ccc1O [NIC, Niclosamide]
[1]
  IC50: 850 nM
[2]
  levels of Wnt target proteins c-myc and cyclin D1: similarly reduced
[3]; CD1, mouse
  % AUC-inf extrapolated (AUC-last/AUC-inf) * 100: 0.33 ± 0.45%
  MRT inf: 54 ± 28.8 min
  MRT last: 54 ± 26.4 min
  Tmax: 12 ± 10.2 min
  half-life: 60 ± 13.2 min
[3]; CD1, mouse, 128 mg/kg
  Cmax: 6200 ± 4230 ng/mL
[3]; mouse
  Vss (=CL × MRT; overall distrib. Volume at steay state): 0.7 ± 0.28 L (per kg BW)
[4]
  MTD at 2 weeks: 5 mg/kg
[5]; Kaplan-Meier
  median survival time: 16 days
[5]; ten days after start of treatment
  mean tumor volume: 661 mm3
[6]
  LD50: 5 mg/kg
[7]
  IC50: 130 to 4000 nM
[8]
  time plasma levels of NIC were above the IC50 for Wnt inhibition: less than 1 h
